# Source: ChEMBL document CHEMBL1201862, “PubChem BioAssay data set” (2004)
# Active and inactive are the calls of the source.
# Assays:
# [1] = biological target: Cytochrome P450 2D6 (Homo sapiens, UniProt P10635); assay: qHTS Assay for Inhibitors and Substrates of Cytochrome P450 2D6. [Related pubchem assays: 410 ]; assay type: ADME; details: read-out: Potency
# [2] = test system: Streptococcus; assay: Luminescence Microorganism-Based Dose Response Follow up to Identify Compounds Cytotoxic to Streptococcus. [Related pubchem assays: 1677 (Project Summary), 1915, 1914, 1902 (Retest at Dose), 1900 (Counter Screen), 1662 (Primary HTS)]; assay type: functional, organism-based
# [3] = biological target: Dual specificity tyrosine-phosphorylation-regulated kinase 1A (Rattus norvegicus, UniProt Q63470); assay type: biochemical, Homo sapiens
# [4] = biological target: T1, Mitochondrial peptide methionine sulfoxide reductase (Bos taurus, UniProt P54149); assay type: functional;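 also: absorbance read-out, biochemical high-throughput dose-response screen for MsrA inhibitors, confirmatory; recombinant bovine MsrA coupled to E. coli TrxB with NADPH and selenocystamine; potency is for inhibitors of MsrA activity on DMSO substrate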
# T1 sequence (P54149 whole entry): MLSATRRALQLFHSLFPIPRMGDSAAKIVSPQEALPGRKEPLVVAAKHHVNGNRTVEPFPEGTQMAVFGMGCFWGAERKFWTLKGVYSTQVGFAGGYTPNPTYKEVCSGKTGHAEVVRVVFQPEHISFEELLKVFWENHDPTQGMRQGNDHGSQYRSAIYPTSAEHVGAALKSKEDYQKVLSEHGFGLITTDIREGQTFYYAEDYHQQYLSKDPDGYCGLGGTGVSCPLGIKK
# [5] = biological target: Cytochrome P450 3A4 (Homo sapiens, UniProt P08684); details: read-out: Potency;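 also: confirmatory qHTS run detecting inhibitors and substrates of CYP3A4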
# Cytochrome P450 3A4, sequence (P08684 whole entry): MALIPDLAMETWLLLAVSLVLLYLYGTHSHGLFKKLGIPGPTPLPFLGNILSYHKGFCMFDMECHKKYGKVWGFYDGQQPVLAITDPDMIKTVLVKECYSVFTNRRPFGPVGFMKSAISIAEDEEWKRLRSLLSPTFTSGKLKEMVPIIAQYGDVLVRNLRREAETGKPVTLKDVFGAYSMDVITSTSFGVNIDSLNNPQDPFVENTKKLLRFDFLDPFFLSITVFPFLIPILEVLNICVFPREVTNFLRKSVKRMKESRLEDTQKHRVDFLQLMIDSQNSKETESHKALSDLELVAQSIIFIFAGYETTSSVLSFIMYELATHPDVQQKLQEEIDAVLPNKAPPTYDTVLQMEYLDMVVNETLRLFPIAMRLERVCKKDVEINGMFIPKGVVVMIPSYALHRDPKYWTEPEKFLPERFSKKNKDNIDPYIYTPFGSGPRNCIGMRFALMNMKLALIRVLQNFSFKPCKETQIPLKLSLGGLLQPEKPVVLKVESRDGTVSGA
# [6] = biological target: Luciferin 4-monooxygenase (Photinus pyralis, UniProt P08659); assay: Counter Screen for Luciferase-based Assay Positives. [Related pubchem assays: 620, 618, 411 ]
# Luciferin 4-monooxygenase, sequence (P08659 whole entry): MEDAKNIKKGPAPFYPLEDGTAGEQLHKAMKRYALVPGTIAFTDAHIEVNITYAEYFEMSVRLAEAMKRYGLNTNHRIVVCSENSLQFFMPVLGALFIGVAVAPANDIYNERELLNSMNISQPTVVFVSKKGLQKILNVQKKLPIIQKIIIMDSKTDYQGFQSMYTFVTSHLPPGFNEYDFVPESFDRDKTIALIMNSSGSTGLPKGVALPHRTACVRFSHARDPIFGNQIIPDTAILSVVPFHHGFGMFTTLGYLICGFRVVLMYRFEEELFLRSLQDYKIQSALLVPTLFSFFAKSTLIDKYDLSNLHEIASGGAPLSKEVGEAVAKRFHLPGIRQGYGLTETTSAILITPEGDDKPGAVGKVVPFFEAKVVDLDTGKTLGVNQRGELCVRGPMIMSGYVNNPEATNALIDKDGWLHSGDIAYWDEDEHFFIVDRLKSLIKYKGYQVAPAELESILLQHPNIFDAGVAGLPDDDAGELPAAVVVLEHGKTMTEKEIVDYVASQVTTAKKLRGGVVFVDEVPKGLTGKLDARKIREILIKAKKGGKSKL
# [7] = test system: HT-1080; assay: HT1080 cell viability loss – fluorescence readout (AID 620); assay type: functional, cell-based; details: Homo sapiens
# [8] = biological target: Eukaryotic translation initiation factor 4H (Homo sapiens, UniProt Q15056); assay: eIF4H binding inhibition – biochemical, uHTS, fluorescence polarization, translation initiation inhibitor project, primary screen (AID 2012)
# [9] = biological target: Polyadenylate-binding protein 1 (Homo sapiens, UniProt P11940); assay: blockers of PABP interaction with poly(A) – biochemical, fluorescence polarization, […] (AID 2014)
# Polyadenylate-binding protein 1, sequence (P11940 whole entry): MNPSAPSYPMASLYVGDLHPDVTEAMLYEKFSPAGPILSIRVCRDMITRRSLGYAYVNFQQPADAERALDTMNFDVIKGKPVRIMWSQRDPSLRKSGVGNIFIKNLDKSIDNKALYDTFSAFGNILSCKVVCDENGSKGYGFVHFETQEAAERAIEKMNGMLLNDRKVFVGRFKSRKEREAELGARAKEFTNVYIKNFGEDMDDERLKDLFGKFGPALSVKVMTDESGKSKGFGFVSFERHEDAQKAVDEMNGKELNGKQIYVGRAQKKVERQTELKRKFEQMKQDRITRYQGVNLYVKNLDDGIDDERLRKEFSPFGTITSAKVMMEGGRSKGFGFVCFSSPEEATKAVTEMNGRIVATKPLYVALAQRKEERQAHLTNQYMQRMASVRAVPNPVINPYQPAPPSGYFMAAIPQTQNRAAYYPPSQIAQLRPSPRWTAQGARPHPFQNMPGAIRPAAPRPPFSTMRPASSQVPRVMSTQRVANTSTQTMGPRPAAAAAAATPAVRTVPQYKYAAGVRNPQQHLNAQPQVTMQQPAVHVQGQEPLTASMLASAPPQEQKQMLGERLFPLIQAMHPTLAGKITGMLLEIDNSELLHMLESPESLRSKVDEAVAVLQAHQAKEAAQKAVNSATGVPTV
# Cytochrome P450 2D6, sequence (P10635 whole entry): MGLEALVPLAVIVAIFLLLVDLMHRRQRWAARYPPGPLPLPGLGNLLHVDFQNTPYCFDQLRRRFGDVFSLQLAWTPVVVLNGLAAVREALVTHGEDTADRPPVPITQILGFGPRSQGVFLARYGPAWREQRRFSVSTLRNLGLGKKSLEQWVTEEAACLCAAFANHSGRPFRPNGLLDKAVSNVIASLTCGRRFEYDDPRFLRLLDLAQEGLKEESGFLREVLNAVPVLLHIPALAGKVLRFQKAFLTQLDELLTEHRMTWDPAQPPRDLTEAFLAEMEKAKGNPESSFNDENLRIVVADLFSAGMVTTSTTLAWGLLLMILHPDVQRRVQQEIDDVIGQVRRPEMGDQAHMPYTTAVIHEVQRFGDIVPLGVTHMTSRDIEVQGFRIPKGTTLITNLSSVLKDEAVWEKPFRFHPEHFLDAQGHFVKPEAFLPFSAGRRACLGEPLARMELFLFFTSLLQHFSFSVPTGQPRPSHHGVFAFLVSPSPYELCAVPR
structure (smiles),measurement,setting,value
CC[C@@H]1[C@H]2CCCCN3[C@@H]2[C@@H](C[C@H]3[C@@H]2C[C@H](C)C(=O)O2)[C@@H]2[C@H]1OC(=O)[C@H]2C,AC50,[1],10 µM (inconclusive)
O=C(c1ccc(OC(F)(F)F)cc1)n1c2ccccc2c2ccccc21,EC50,[2],> 500 µM (not active)
COc1cc2c(cc1O)CC1c3c(cc(O)c(OC)c3-2)CCN1C (centres undefined),AC50,[3],3.83 µM (active)
same,IC50,[4],53.9 µM (inactive)
same,AC50,[5],25.1 µM (inconclusive)
COc1ccc(-c2cc(C(=O)O)c(C)o2)cc1OC,EC50,[6],4.68 µM (active)
same,EC50,[7],> 50 µM (not active)
CCCCn1cc[n+](-c2nc3c([N+](=O)[O-])cccc3n2C)c1,IC50,[8],> 100 µM (inactive)
same,IC50,[9],4.55 µM (active)
